The source of these data is ChEMBL document CHEMBL5385873, “Analogues of natural products yaequinolones as potential inflammatory inhibitors: Design, synthesis and biological evaluation” (Eur J Med Chem, 2023).

Holding throughout (assay type): functional, cell-based
Experiment [1] relates to RAW264.7. Briefly: Cytotoxicity against mouse RAW264.7 cells assessed as reduction in cell viability at <50 uM incubated for 24 hrs by MTT assay.
In experiment [2] the test system is RAW264.7. The experiment can be described thus: Antiinflammatory activity in mouse RAW264.7 cells assessed as inhibition of LPS-induced NO production at 0.05 uM incubated for 24 hrs.
The subject of experiment [3] is RAW264.7. The experiment can be described thus: Antiinflammatory activity in mouse RAW264.7 cells assessed as reduction in LPS-induced IL-6 level at 0.05 uM measured after 24 hrs by ELISA method.
For experiment [4], the system named is RAW264.7. The experiment can be described thus: Antiinflammatory activity in mouse RAW264.7 cells assessed as inhibition of LPS-induced TNF-alpha expression at 0.1 uM measured after 24 hrs by ELISA method. A general note: An ELISA detects its analyte on a solid surface through an enzyme-linked reagent.
Experiment [5] relates to RAW264.7. The experiment can be described thus: Antiinflammatory activity in mouse RAW264.7 cells assessed as inhibition of LPS-induced NO production at 1 uM incubated for 24 hrs.
Experiment [6] deals with RAW264.7. The experiment can be described thus: Antiinflammatory activity in mouse RAW264.7 cells assessed as inhibition of LPS-induced NO production at 0.1 uM incubated for 24 hrs.
Experiment [7] has as its system RAW264.7. The experiment can be described thus: Cytotoxicity against mouse RAW264.7 cells assessed as reduction in cell viability at 2 to 10 uM incubated for 24 hrs by MTT assay. The settings on record: dose 2-10 µM. In general terms: Formazan colour is commonly taken as a measure of viable cells.

Calls of active or inactive are those of the source. No cut-off for these calls is given here.

As to `CO[C@@H]1C(=O)Nc2ccc3c(c2[C@@]1(O)c1ccccc1)O[C@@](C)(CCC=C(C)C)C=C3`, in experiment [1], the result was inactive.
In the case of `CO[C@@H]1C(=O)Nc2ccc3c(c2[C@@]1(O)c1ccccc1)O[C@](C)(CCC=C(C)C)C=C3`, the result in experiment [2], in experiment [1] and in experiment [4] was inactive. Moreover, the outcome in experiment [3], in experiment [5] and in experiment [6] was Active.
On to `CO[C@H]1C(=O)Nc2ccc3c(c2[C@]1(O)c1ccccc1)O[C@@](C)(CCC=C(C)C)C=C3`, for which, in experiment [1], the outcome was inactive.
Regarding `CO[C@H]1C(=O)Nc2ccc3c(c2[C@]1(O)c1ccccc1)O[C@](C)(CCC=C(C)C)C=C3`, the outcome in experiment [2], in experiment [1] and in experiment [4] was inactive. In addition, the result in experiment [3], in experiment [5] and in experiment [6] was Active.
As for `COc1ccc([C@@]2(O)c3c(ccc4c3O[C@@](C)(CCC=C(C)C)C=C4)NC(=O)[C@@H]2OC)cc1`, the outcome in experiment [1] was inactive.
Same read-out and setting: the entry for `COc1ccc([C@@]2(O)c3c(ccc4c3O[C@](C)(CCC=C(C)C)C=C4)NC(=O)[C@@H]2OC)cc1` is “inactive”; for `COc1ccc([C@]2(O)c3c(ccc4c3O[C@@](C)(CCC=C(C)C)C=C4)NC(=O)[C@H]2OC)cc1` it is “inactive”.
`COc1ccc([C@]2(O)c3c(ccc4c3O[C@](C)(CCC=C(C)C)C=C4)NC(=O)[C@H]2OC)cc1`: the outcome in experiment [2] and in experiment [1] was inactive. For the same compound, the outcome in experiment [5] was Active.
With `CO[C@@H]1C(=O)Nc2ccc3c(c2[C@@]1(O)c1ccc(Br)cc1)O[C@@](C)(CCC=C(C)C)C=C3` (racemic), in experiment [7], the result was Active.
`CO[C@@H]1C(=O)Nc2ccc3c(c2[C@@]1(O)c1ccc(Br)cc1)O[C@](C)(CCC=C(C)C)C=C3` (racemic): the outcome in experiment [2] and in experiment [1] was inactive. Besides, the result in experiment [5] was Active.
For the compound `CO[C@@H]1C(=O)Nc2ccc3c(c2[C@@]1(O)c1ccc(C(F)(F)F)cc1)O[C@](C)(CCC=C(C)C)C=C3` (racemic), the outcome in experiment [2] and in experiment [1] was inactive. The result in experiment [5] was Active.
As for `CO[C@@H]1C(=O)Nc2ccc3c(c2[C@@]1(O)c1ccc(C)cc1)O[C@@](C)(CCC=C(C)C)C=C3` (racemic), in experiment [1], the result was inactive.
Same read-out and setting: the entry for `CO[C@@H]1C(=O)Nc2ccc3c(c2[C@@]1(O)c1ccc(C)cc1)O[C@](C)(CCC=C(C)C)C=C3` (racemic) is “inactive”.
Take `CO[C@@H]1C(=O)Nc2ccc3c(c2[C@@]1(O)c1ccc(Cl)cc1)O[C@@](C)(CCC=C(C)C)C=C3` (racemic): the result in experiment [1] was inactive.
As to `CO[C@@H]1C(=O)Nc2ccc3c(c2[C@@]1(O)c1ccc(Cl)cc1)O[C@](C)(CCC=C(C)C)C=C3` (racemic), the outcome in experiment [1] was inactive.
Regarding `CO[C@@H]1C(=O)Nc2ccc3c(c2[C@@]1(O)c1ccc(F)cc1)O[C@@](C)(CCC=C(C)C)C=C3` (racemic), in experiment [1], the result was inactive.
In the case of `CO[C@@H]1C(=O)Nc2ccc3c(c2[C@@]1(O)c1ccc(F)cc1)O[C@](C)(CCC=C(C)C)C=C3` (racemic), in experiment [1], the result was inactive.
As to `CO[C@@H]1C(=O)Nc2ccc3c(c2[C@@]1(O)c1ccc([N+](=O)[O-])cc1)O[C@@](C)(CCC=C(C)C)C=C3` (racemic), the outcome in experiment [2], in experiment [1] and in experiment [4] was inactive. For the same compound, the outcome in experiment [3], in experiment [5] and in experiment [6] was Active.
Take `CO[C@@H]1C(=O)Nc2ccc3c(c2[C@@]1(O)c1ccc([N+](=O)[O-])cc1)O[C@](C)(CCC=C(C)C)C=C3` (racemic): the result in experiment [2], in experiment [1] and in experiment [4] was inactive. For the same compound, the outcome in experiment [5] and in experiment [6] was Active.
As for `CO[C@@H]1C(=O)Nc2ccc3c(c2[C@@]1(O)c1cccc(Br)c1)O[C@@](C)(CCC=C(C)C)C=C3` (racemic), the outcome in experiment [2] and in experiment [1] was inactive. Besides, the outcome in experiment [5] and in experiment [6] was Active.
As to `CO[C@@H]1C(=O)Nc2ccc3c(c2[C@@]1(O)c1cccc(Br)c1)O[C@](C)(CCC=C(C)C)C=C3` (racemic), the result in experiment [2], in experiment [1] and in experiment [4] was inactive. Further, the result in experiment [3], in experiment [5] and in experiment [6] was Active.
As to `COc1ccc([C@]2(O)c3c(ccc4c3O[C@@](C)(CCC=C(C)C)C=C4)N(C)C(=O)[C@H]2OC)cc1` (racemic), the outcome in experiment [2] and in experiment [1] was inactive. Further, the outcome in experiment [5] was Active.
Take `COc1ccc([C@]2(O)c3c(ccc4c3O[C@@](C)(CCC=C(C)C)C=C4)N(Cc3ccc(Cl)cc3)C(=O)[C@H]2OC)cc1` (racemic): the outcome in experiment [2] and in experiment [1] was inactive. The outcome in experiment [5] and in experiment [6] was Active.
Consider `COc1ccc([C@]2(O)c3c(ccc4c3O[C@@](C)(CCC=C(C)C)C=C4)N(Cc3cccc(Br)c3)C(=O)[C@H]2OC)cc1` (racemic), for which the outcome in experiment [2] and in experiment [1] was inactive. The outcome in experiment [5] and in experiment [6] was Active.
For the compound `COc1ccc([C@]2(O)c3c(ccc4c3O[C@@](C)(CCC=C(C)C)C=C4)N(Cc3cccc(C(F)(F)F)c3)C(=O)[C@H]2OC)cc1` (racemic), in experiment [1], the result was inactive.
Still for that read-out and setting: to `COc1ccc([C@]2(O)c3c(ccc4c3O[C@@](C)(CCC=C(C)C)C=C4)N(Cc3cccc(C)c3)C(=O)[C@H]2OC)cc1` (racemic) belongs “inactive”.
Turning to `COc1ccc([C@]2(O)c3c(ccc4c3O[C@@](C)(CCC=C(C)C)C=C4)N(Cc3cccc(C)n3)C(=O)[C@H]2OC)cc1` (racemic), the outcome in experiment [2] and in experiment [1] was inactive. The outcome in experiment [5] and in experiment [6] was Active.
`COc1ccc([C@]2(O)c3c(ccc4c3O[C@@](C)(CCC=C(C)C)C=C4)N(Cc3cccc(F)c3)C(=O)[C@H]2OC)cc1` (racemic): the outcome in experiment [2] and in experiment [1] was inactive. The outcome in experiment [5] was Active.
Consider `COc1ccc([C@]2(O)c3c(ccc4c3O[C@@](C)(CCC=C(C)C)C=C4)N(Cc3ccccc3Cl)C(=O)[C@H]2OC)cc1` (racemic), for which the outcome in experiment [2] and in experiment [1] was inactive. Besides, the result in experiment [5] was Active.
Regarding `COc1ccc([C@]2(O)c3c(ccc4c3O[C@](C)(CCC=C(C)C)C=C4)N(C)C(=O)[C@H]2OC)cc1` (racemic), the result in experiment [2] and in experiment [1] was inactive. Moreover, the result in experiment [5] was Active.
For `COc1ccc([C@]2(O)c3c(ccc4c3O[C@](C)(CCC=C(C)C)C=C4)N(Cc3ccc(Cl)cc3)C(=O)[C@H]2OC)cc1` (racemic), the result in experiment [2] and in experiment [1] was inactive. For the same compound, the result in experiment [5] was Active.
In the case of `COc1ccc([C@]2(O)c3c(ccc4c3O[C@](C)(CCC=C(C)C)C=C4)N(Cc3cccc(Br)c3)C(=O)[C@H]2OC)cc1` (racemic), the outcome in experiment [2] was inactive. Also, the result in experiment [7], in experiment [5] and in experiment [6] was Active.
Regarding `COc1ccc([C@]2(O)c3c(ccc4c3O[C@](C)(CCC=C(C)C)C=C4)N(Cc3cccc(C(F)(F)F)c3)C(=O)[C@H]2OC)cc1` (racemic), the outcome in experiment [2] and in experiment [1] was inactive. For the same compound, the result in experiment [5] and in experiment [6] was Active.
As to `COc1ccc([C@]2(O)c3c(ccc4c3O[C@](C)(CCC=C(C)C)C=C4)N(Cc3cccc(C)c3)C(=O)[C@H]2OC)cc1` (racemic), the result in experiment [1] was inactive.
On the same count and under the same terms, the entry for `COc1ccc([C@]2(O)c3c(ccc4c3O[C@](C)(CCC=C(C)C)C=C4)N(Cc3cccc(C)n3)C(=O)[C@H]2OC)cc1` (racemic) is “inactive”.
In the case of `COc1ccc([C@]2(O)c3c(ccc4c3O[C@](C)(CCC=C(C)C)C=C4)N(Cc3cccc(F)c3)C(=O)[C@H]2OC)cc1` (racemic), the result in experiment [2] and in experiment [1] was inactive. Further, the outcome in experiment [5] and in experiment [6] was Active.
For `COc1ccc([C@]2(O)c3c(ccc4c3O[C@](C)(CCC=C(C)C)C=C4)N(Cc3ccccc3Cl)C(=O)[C@H]2OC)cc1` (racemic), in experiment [1], the result was inactive.
With `COc1cccc([C@]2(O)c3c(ccc4c3O[C@@](C)(CCC=C(C)C)C=C4)NC(=O)[C@H]2OC)c1` (racemic), the result in experiment [2] and in experiment [1] was inactive. Besides, in experiment [5], the result was Active.
For the compound `COc1cccc([C@]2(O)c3c(ccc4c3O[C@](C)(CCC=C(C)C)C=C4)NC(=O)[C@H]2OC)c1` (racemic), the outcome in experiment [2] and in experiment [1] was inactive. In experiment [5], the result was Active.
